Source: paper PMC11374673, “Discovery of isoquinoline sulfonamides as allosteric gyrase inhibitors with activity against fluoroquinolone-resistant bacteria” (Nature Chemistry, 2024)
Values after ≈ are worked out from the molar mass of the structure shown. Where two headings read alike, the source gives them in different places.

What was measured:
E. coli ATCC 25922 = assay: MIC by broth microdilution; assay type: cell-based
Description: MIC was determined by broth microdilution. Single-colony cultures were grown to exponential phase (OD600 of 0.5) aerobically at 37 °C. In case of strains from the Keio collection, 50 µg ml^−1 kanamycin was supplemented to the media to ascertain a homogeneous population. The bacterial suspensions were diluted 100-fold in CAMHB and 50 µl was added to a twofold serial dilution series of test compounds (50 µl per well) in polypropylene 96-well microtitre plates to reach a volume of 100 µl. The plates were sealed with breathable membranes and incubated overnight at 37 °C with constant shaking (600 r.p.m.).

E. coli W3110 [1] = assay: MIC by broth microdilution; assay type: cell-based, Escherichia coli; settings: Escherichia coli
Procedure, shortened: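 Broth microdilution in CAMHB: twofold compound series inoculated with 100-fold-diluted bacteria from exponential growth (OD600 0.5, 37 °C); kanamycin 50 µg ml^−1 added for Keio collection strains. Overnight incubation, 37 °C, 600 r.p.m. shaking.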

E. coli W3110 [2] = assay: Checkerboard assay with PMBN;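 as to checkerboard plate reading, Average values: OD600 read after 20 h incubation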
[3] = Escherichia coli, ATCC25922; read-out: MIC E. coli ATCC 25922

O=C(O)c1cn(C2CC2)c2cc(N3CCNCC3)c(F)cc2c1=O [CIP, ciprofloxacin]
MIC (E. coli ATCC 25922; Escherichia coli, ATCC25922, read-out: MIC E. coli ATCC 25922): 0.024 µM (≈ 0.00795 µg/mL) | MIC (E. coli W3110 [1]; W3110): 7.8 ng/mL | MIC (E. coli W3110 [1]; W3110, read-out: MIC E. coli WT strain): 0.024 µM | checkerboard plate reading, Average values (E. coli W3110 [2]; Ciprofloxacin 1.5625 nM + PMBN 1 µM): 0.8906 | checkerboard plate reading, Average values (E. coli W3110 [2]; Ciprofloxacin 1.5625 nM + PMBN 2 µM): 0.8911 | checkerboard plate reading, Average values (E. coli W3110 [2]; Ciprofloxacin 1.5625 nM + PMBN 4 µM): 0.726 | checkerboard plate reading, Average values (E. coli W3110 [2]; Ciprofloxacin 1.5625 nM + PMBN 8 µM): 0.6303 | checkerboard plate reading, Average values (E. coli W3110 [2]; Ciprofloxacin 3.125 nM + PMBN 0 µM): 0.9278 | checkerboard plate reading, Average values (E. coli W3110 [2]; Ciprofloxacin 3.125 nM + PMBN 0.5 µM): 0.8723 | checkerboard plate reading, Average values (E. coli W3110 [2]; Ciprofloxacin 3.125 nM + PMBN 1 µM): 0.849 | checkerboard plate reading, Average values (E. coli W3110 [2]; Ciprofloxacin 3.125 nM + PMBN 2 µM): 0.8236 | checkerboard plate reading, Average values (E. coli W3110 [2]; Ciprofloxacin 3.125 nM + PMBN 4 µM): 0.7354 | checkerboard plate reading, Average values (E. coli W3110 [2]; Ciprofloxacin 3.125 nM + PMBN 8 µM): 0.666 | checkerboard plate reading, Average values (E. coli W3110 [2]; Ciprofloxacin 3.125 nM + PMBN 16 µM): 0.8076 | checkerboard plate reading, Average values (E. coli W3110 [2]; Ciprofloxacin 3.125 nM + PMBN 32 µM): 0.5963 | checkerboard plate reading, Average values (E. coli W3110 [2]; Ciprofloxacin 6.25 nM + PMBN 0 µM): 0.8608 | checkerboard plate reading, Average values (E. coli W3110 [2]; Ciprofloxacin 6.25 nM + PMBN 0.5 µM): 0.801 | checkerboard plate reading, Average values (E. coli W3110 [2]; Ciprofloxacin 6.25 nM + PMBN 1 µM): 0.7994 | checkerboard plate reading, Average values (E. coli W3110 [2]; Ciprofloxacin 6.25 nM + PMBN 2 µM): 0.8003 | checkerboard plate reading, Average values (E. coli W3110 [2]; Ciprofloxacin 6.25 nM + PMBN 4 µM): 0.7289 | checkerboard plate reading, Average values (E. coli W3110 [2]; Ciprofloxacin 6.25 nM + PMBN 8 µM): 0.6534 | checkerboard plate reading, Average values (E. coli W3110 [2]; Ciprofloxacin 6.25 nM + PMBN 16 µM): 0.5862 | checkerboard plate reading, Average values (E. coli W3110 [2]; Ciprofloxacin 6.25 nM + PMBN 32 µM): 0.4866 | checkerboard plate reading, Average values (E. coli W3110 [2]; Ciprofloxacin 12.5 nM + PMBN 0 µM): 0.8404 | checkerboard plate reading, Average values (E. coli W3110 [2]; Ciprofloxacin 12.5 nM + PMBN 0.5 µM): 0.7355 | checkerboard plate reading, Average values (E. coli W3110 [2]; Ciprofloxacin 12.5 nM + PMBN 1 µM): 0.7301 | checkerboard plate reading, Average values (E. coli W3110 [2]; Ciprofloxacin 12.5 nM + PMBN 2 µM): 0.723 | checkerboard plate reading, Average values (E. coli W3110 [2]; Ciprofloxacin 12.5 nM + PMBN 4 µM): 0.67 | checkerboard plate reading, Average values (E. coli W3110 [2]; Ciprofloxacin 12.5 nM + PMBN 8 µM): 0.5682 | checkerboard plate reading, Average values (E. coli W3110 [2]; Ciprofloxacin 12.5 nM + PMBN 16 µM): 0.6754 | checkerboard plate reading, Average values (E. coli W3110 [2]; Ciprofloxacin 12.5 nM + PMBN 32 µM): 0.5017 | checkerboard plate reading, Average values (E. coli W3110 [2]; Ciprofloxacin 25 nM + PMBN 0 µM): 0.4892 | checkerboard plate reading, Average values (E. coli W3110 [2]; Ciprofloxacin 25 nM + PMBN 0.5 µM): 0.5201 | checkerboard plate reading, Average values (E. coli W3110 [2]; Ciprofloxacin 25 nM + PMBN 1 µM): 0.4961 | checkerboard plate reading, Average values (E. coli W3110 [2]; Ciprofloxacin 25 nM + PMBN 2 µM): 0.4386 | checkerboard plate reading, Average values (E. coli W3110 [2]; Ciprofloxacin 25 nM + PMBN 4 µM): 0.4173 | checkerboard plate reading, Average values (E. coli W3110 [2]; Ciprofloxacin 25 nM + PMBN 8 µM): 0.2541 | checkerboard plate reading, Average values (E. coli W3110 [2]; Ciprofloxacin 25 nM + PMBN 16 µM): 0.196 | checkerboard plate reading, Average values (E. coli W3110 [2]; Ciprofloxacin 25 nM + PMBN 32 µM): 0.2103 | checkerboard plate reading, Average values (E. coli W3110 [2]; Ciprofloxacin 50 nM + PMBN 0 µM): 0.1991 | checkerboard plate reading, Average values (E. coli W3110 [2]; Ciprofloxacin 50 nM + PMBN 0.5 µM): 0.2079 | checkerboard plate reading, Average values (E. coli W3110 [2]; Ciprofloxacin 50 nM + PMBN 1 µM): 0.2136 | checkerboard plate reading, Average values (E. coli W3110 [2]; Ciprofloxacin 50 nM + PMBN 2 µM): 0.1771 | checkerboard plate reading, Average values (E. coli W3110 [2]; Ciprofloxacin 50 nM + PMBN 4 µM): 0.1678 | checkerboard plate reading, Average values (E. coli W3110 [2]; Ciprofloxacin 50 nM + PMBN 8 µM): 0.1671 | checkerboard plate reading, Average values (E. coli W3110 [2]; Ciprofloxacin 50 nM + PMBN 16 µM): 0.1685 | checkerboard plate reading, Average values (E. coli W3110 [2]; Ciprofloxacin 50 nM + PMBN 32 µM): 0.1738 | MIC (E. coli W3110 [2]; Escherichia coli, W3110): 0.05 µM | MIC E. coli + 8 μM PMBN (E. coli W3110 [2]; LPS disruption (pharmacological)): 0.024 µM | synergy with PMBN (E. coli W3110 [2]; checkerboard): does not have an effect and none | MSC (E. coli W3110 [2]; checkerboard with PMBN, E. coli W3110): 0.025 µM

O=S(=O)(NCCNCc1ccc(-c2ccc(F)nc2)cc1)c1cccc2cnccc12 [Compound 60]
MIC (E. coli ATCC 25922; [3]): 12.5 µM (≈ 5.46 µg/mL) | MIC (E. coli W3110 [1]; W3110, read-out: MIC E. coli W3110): 6.25 µM

O=S(=O)(NC[C@@H]1CC[C@H](c2ccc(-c3ccc(F)cc3)cc2)N1)c1cccc2cnccc12 [Compound 101]
MIC (E. coli ATCC 25922; [3]): 3.1 µM (≈ 1.43 µg/mL) | MIC (E. coli W3110 [1]; W3110, WT, broth microdilution, read-out: MIC E. coli W3110): 1.6 µM
